According to publication PMC6941952, “A homogeneous bioluminescent immunoassay to probe cellular signaling pathway regulation” (Communications Biology, 2020):
Several values for one entry are separate records, joined by “and”; a condition that tells them apart may be missing. Equal values may be shown once.

Test system: total IκBα
Assay: NanoBiT cell-based immunoassay, total IκBα in MCF-7 cells
Parameters: species or system human
Details: for Total IkB Average / Average / IkB Average: background subtracted; for Raw data / Subtract background / Average: Figure 2d; for Average IKB (background subtracted) / Raw data IKB / Subtract reagent background IKB: 30 min, MCF-7, Fig 7a; for IkB Average / IKB Raw data / IKB Subtract reagent background: without CHX
Method: Prior to NanoBiT Cell-Based Immunoassay, 50,000 cells were seeded in 160 µl of complete growth media per well of a 96-well plate and incubated overnight. […] If necessary, the cell culture media were replaced with serum-free media after the cells were stably adherent on the plate and incubated overnight. To treat cells with activators or inhibitors, medium was changed to 30 µl of medium containing inhibitors. If activation of a specific pathway is needed, the cells were stimulated with 10 µl of medium containing activators. To lyse the cells, 10 µl of lysis buffer containing 0.1% digitonin diluted in 1X immunoassay buffer with protease and phosphatase inhibitors was added and the plates were mixed vigorously for 20 min. Then, 50 µl of an antibody mix containing two primary antibodies against the target protein and NanoBiT detecting antibodies (0.3 µl each per well), diluted in 1X immunoassay buffer was added to the lysates. The plates were incubated at 23 °C for 90 min, followed by the addition of 25 µl of Nano-Glo® reagent consisting of Nano-Glo® Luciferase Assay Substrate mixed with 1X immunoassay buffer. Luminescence was measured using a plate-reading luminometer.
Single dose or dose response inhibitor treatments were performed prior to activation of the pathways as follows. For IκBα, the cells were treated in 30 µl medium with IKK16 or MG132 for 60 min before the addition of 10 µl of DMEM containing appropriate concentration of TNFα. To measure phosphorylation of AKT or STAT3, the corresponding NanoBiT immunoassays were developed with MCF-7 or A431 cells, respectively, according the same scheme used to develop the IκBα assay using the primary antibodies for AKT and STAT3 described in the reagents section. […] Treatment with LY294002 was performed in 30 µl medium and cells were incubated for 60 min before the addition of 1 µM Insulin. To measure STAT3 phosphorylation, A431 cells were incubated overnight in DMEM medium without serum. […] After addition of the stimulators, the cells were incubated for additional times as follows. IκBα phosphorylation and degradation analyses required both time courses and single time points as described in figures. […] The NanoBiT immunoassay protocol was followed as described above.
All 96-well assay plates were read using a GloMax® 96 Microplate Luminometer from Promega. The instrument was set to 0.5 s integration time. In order to obtain net change of signal, the reagent background values (signal from the well containing all reagent except primary antibodies) were subtracted from the sample values. To plot and analyze the data, Microsoft Excel and GraphPad Prism® Software were used. IC50 values were determined by using a nonlinear regression fit to a sigmoidal dose response (variable slope).

[1] = Figure 3a and 3b, listed as TNF
[2] = No MG132, TNF 2 min, listed as TNF
[3] = No MG132, TNF 4 min, listed as TNF
[4] = No MG132, TNF 6 min, listed as TNF
[5] = No MG132, TNF 8 min, listed as TNF
[6] = No MG132, TNF 10 min, listed as TNF
[7] = No MG132, TNF 12 min, listed as TNF
[8] = No MG132, TNF 15 min, listed as TNF
[9] = No MG132, TNF 30 min, listed as TNF
[10] = TNF 0.00038147 ng/ml, listed as TNF
[11] = TNF 0.00152588 ng/ml, listed as TNF
[12] = TNF 0.00610352 ng/ml, listed as TNF
[13] = TNF 0.0244141 ng/ml, listed as TNF
[14] = TNF 0.0976562 ng/ml, listed as TNF
[15] = TNF 0.390625 ng/ml, listed as TNF
[16] = TNF 1.5625 ng/ml, listed as TNF

## TNFα
Figure 3a and 3b
  Total IkB Average: 42170
[1]
  Total IkB Raw data: 63440 and 64850 and 64790
  Total IkB Subtract reagent background: 42600 and 41250 and 42660
Cell # 3500, listed as TNF
  Raw data: 18670 and 18820
  Subtract background: 4540 and 4140
Cell # 7000, listed as TNF
  Raw data: 18660 and 18670
  Subtract background: 4530 and 3990
Cell # 14000, listed as TNF
  Raw data: 18430 and 19060
  Subtract background: 4300 and 4380
Cell # 21000
  Raw data: 19110
  Average: 4705
Cell # 21000, listed as TNF
  Subtract background: 4980 and 4430
Cell # 28000, listed as TNF
  Raw data: 20250 and 19900
  Subtract background: 6120 and 5220
Cell # 35000, listed as TNF
  Raw data: 20910 and 20760
  Subtract background: 6780 and 6080
Cell # 42000, listed as TNF
  Raw data: 21720 and 21040
  Subtract background: 7590 and 6360
Cell # 49000, listed as TNF
  Raw data: 22850 and 23430
  Subtract background: 8720 and 8750
Cell # 56000, listed as TNF
  Raw data: 23160 and 23600
  Subtract background: 9030 and 8920
Cell # 63000, listed as TNF
  Raw data: 26970 and 26330
  Subtract background: 12840 and 11650
Cell # 3500
  Average: 4340
Cell # 7000
  Average: 4260
Cell # 14000
  Average: 4340
Cell # 28000
  Average: 5670
Cell # 35000
  Average: 6430
Cell # 42000
  Average: 6975
Cell # 49000
  Average: 8735
Cell # 56000
  Average: 8975
Cell # 63000
  Average: 12245
No MG132, TNF 2 min
  Total IkB Average: 63885
[2]
  Total IkB Raw data: 78720 and 79300 and 81370 and 83380
  Total IkB Subtract reagent background: 61913 and 62493 and 64563 and 66573
No MG132, TNF 4 min
  Total IkB Average: 62935
[3]
  Total IkB Raw data: 77560 and 79450 and 81310 and 80650
  Total IkB Subtract reagent background: 60753 and 62643 and 64503 and 63843
No MG132, TNF 6 min
  Total IkB Average: 62480
[4]
  Total IkB Raw data: 79920 and 79580 and 79430 and 78220
  Total IkB Subtract reagent background: 63113 and 62773 and 62623 and 61413
No MG132, TNF 8 min
  Total IkB Average: 58228
[5]
  Total IkB Raw data: 76120 and 76190 and 73510 and 74320
  Total IkB Subtract reagent background: 59313 and 59383 and 56703 and 57513
No MG132, TNF 10 min
  Total IkB Average: 52595
[6]
  Total IkB Raw data: 72590 and 72810 and 65780 and 66430
  Total IkB Subtract reagent background: 55783 and 56003 and 48973 and 49623
No MG132, TNF 12 min
  Total IkB Average: 41533
[7]
  Total IkB Raw data: 62400 and 61420 and 53610 and 55930
  Total IkB Subtract reagent background: 45593 and 44613 and 36803 and 39123
No MG132, TNF 15 min
  Total IkB Average: 29070
[8]
  Total IkB Raw data: 51070 and 48840 and 41650 and 41950
  Total IkB Subtract reagent background: 34263 and 32033 and 24843 and 25143
No MG132, TNF 30 min
  Total IkB Average: 9615
[9]
  Total IkB Raw data: 28150 and 26460 and 25400 and 25680
  Total IkB Subtract reagent background: 11343 and 9653 and 8593 and 8873
TNF 0.00038147 ng/ml
  Average IKB (background subtracted): 68883
[10]
  Raw data IKB: 80810 and 81860 and 75990
  Subtract reagent background IKB: 70140 and 71190 and 65320
TNF 0.00152588 ng/ml
  Average IKB (background subtracted): 65947
[11]
  Raw data IKB: 78690 and 78640 and 72520
  Subtract reagent background IKB: 68020 and 67970 and 61850
TNF 0.00610352 ng/ml
  Average IKB (background subtracted): 63850
[12]
  Raw data IKB: 76470 and 76630 and 70460
  Subtract reagent background IKB: 65800 and 65960 and 59790
TNF 0.0244141 ng/ml
  Average IKB (background subtracted): 59300
[13]
  Raw data IKB: 73310 and 70780 and 65820
  Subtract reagent background IKB: 62640 and 60110 and 55150
TNF 0.0976562 ng/ml
  Average IKB (background subtracted): 52567
[14]
  Raw data IKB: 65850 and 63760 and 60100
  Subtract reagent background IKB: 55180 and 53090 and 49430
TNF 0.390625 ng/ml
  Average IKB (background subtracted): 37353
[15]
  Raw data IKB: 46770 and 47240 and 50060
  Subtract reagent background IKB: 36100 and 36570 and 39390
TNF 1.5625 ng/ml
  Average IKB (background subtracted): 21387
[16]
  Raw data IKB: 30440 and 30700 and 35030
  Subtract reagent background IKB: 19770 and 20030 and 24360
TNF 6.25 ng/ml
  Average IKB (background subtracted): 12817
TNF 6.25 ng/ml, listed as TNF
  Raw data IKB: 23480 and 22250 and 24730
  Subtract reagent background IKB: 12810 and 11580 and 14060
TNF 25 ng/ml
  Average IKB (background subtracted): 10187
TNF 25 ng/ml, listed as TNF
  Raw data IKB: 20190 and 20330 and 22050
  Subtract reagent background IKB: 9520 and 9660 and 11380
TNF 100 ng/ml
  Average IKB (background subtracted): 9587
TNF 100 ng/ml, listed as TNF
  Raw data IKB: 19860 and 20090 and 20820
  Subtract reagent background IKB: 9190 and 9420 and 10150
TNF 5 min
  IkB Average: 50908
TNF 5 min, listed as TNF
  IKB Raw data: 65320 and 61760 and 61990 and 62780
  IKB Subtract reagent background: 53265 and 49705 and 49935 and 50725
TNF 10 min
  IkB Average: 31425
TNF 10 min, listed as TNF
  IKB Raw data: 42500 and 40590 and 43600 and 47230
  IKB Subtract reagent background: 30445 and 28535 and 31545 and 35175
TNF 20 min
  IkB Average: 10930
TNF 20 min, listed as TNF
  IKB Raw data: 21120 and 20330 and 22530 and 27960
  IKB Subtract reagent background: 9065 and 8275 and 10475 and 15905
TNF 30 min
  IkB Average: 8948
TNF 30 min, listed as TNF
  IKB Raw data: 19500 and 19660 and 20770 and 24080
  IKB Subtract reagent background: 7445 and 7605 and 8715 and 12025
TNF 40 min
  IkB Average: 12565
TNF 40 min, listed as TNF
  IKB Raw data: 24080 and 23090 and 23770 and 27540
  IKB Subtract reagent background: 12025 and 11035 and 11715 and 15485
TNF 60 min
  IkB Average: 23095
TNF 60 min, listed as TNF
  IKB Raw data: 35230 and 33190 and 36060 and 36120
  IKB Subtract reagent background: 23175 and 21135 and 24005 and 24065
TNF 80 min
  IkB Average: 35000
TNF 80 min, listed as TNF
  IKB Raw data: 46920 and 46230 and 46940 and 48130
  IKB Subtract reagent background: 34865 and 34175 and 34885 and 36075
TNF 100 min
  IkB Average: 40533
TNF 100 min, listed as TNF
  IKB Raw data: 53930 and 50010 and 52000 and 54410
  IKB Subtract reagent background: 41875 and 37955 and 39945 and 42355
TNF 120 min
  IkB Average: 41718
TNF 120 min, listed as TNF
  IKB Raw data: 56260 and 53820 and 52280 and 52730
  IKB Subtract reagent background: 44205 and 41765 and 40225 and 40675
